Source: patent US11292802B2, “Substituted tetrahydropyrrolo[1,2-a]pyrazines as alpha v integrin inhibitors” (BRISTOL-MYERS SQUIBB COMPANY, priority 2017, dated 2022)

Each compound was assayed against T1, human αVβ6 (Homo sapiens, UniProt P06756+P18564) (assay: human αVβ6 HTRF binding assay). Conditions: biotinylated recombinant human αVβ6 integrin 1.25 nM, FITC-conjugated fibronectin 5 nM.
T1 construct: purchased R & D systems 3817-AV
Protocol: All binding assays used the HTRF (homogeneous time resolved fluorescence) technology from Cisbio International, therefore all assays are described as HTRF binding assays. The assay results for the Examples are listed in Table 1, exemplified by human αVβ6 (?). The HTRF binding assays are established for the following integrins: human αVβ6, human αVβ1, human αVβ3, human αVβ5, and human αVβ8. All assays used the following assay buffer: 20 mM Tris, pH 7.4, 1 mM MgCl2, 1 mM MnCl2, 0.01% Tween 20, and 0.01% BSA. Alternatively, a SPA-based assay was used for evaluation of receptor binding.
[…]

T1 sequence (P06756 31-992 limits assumed): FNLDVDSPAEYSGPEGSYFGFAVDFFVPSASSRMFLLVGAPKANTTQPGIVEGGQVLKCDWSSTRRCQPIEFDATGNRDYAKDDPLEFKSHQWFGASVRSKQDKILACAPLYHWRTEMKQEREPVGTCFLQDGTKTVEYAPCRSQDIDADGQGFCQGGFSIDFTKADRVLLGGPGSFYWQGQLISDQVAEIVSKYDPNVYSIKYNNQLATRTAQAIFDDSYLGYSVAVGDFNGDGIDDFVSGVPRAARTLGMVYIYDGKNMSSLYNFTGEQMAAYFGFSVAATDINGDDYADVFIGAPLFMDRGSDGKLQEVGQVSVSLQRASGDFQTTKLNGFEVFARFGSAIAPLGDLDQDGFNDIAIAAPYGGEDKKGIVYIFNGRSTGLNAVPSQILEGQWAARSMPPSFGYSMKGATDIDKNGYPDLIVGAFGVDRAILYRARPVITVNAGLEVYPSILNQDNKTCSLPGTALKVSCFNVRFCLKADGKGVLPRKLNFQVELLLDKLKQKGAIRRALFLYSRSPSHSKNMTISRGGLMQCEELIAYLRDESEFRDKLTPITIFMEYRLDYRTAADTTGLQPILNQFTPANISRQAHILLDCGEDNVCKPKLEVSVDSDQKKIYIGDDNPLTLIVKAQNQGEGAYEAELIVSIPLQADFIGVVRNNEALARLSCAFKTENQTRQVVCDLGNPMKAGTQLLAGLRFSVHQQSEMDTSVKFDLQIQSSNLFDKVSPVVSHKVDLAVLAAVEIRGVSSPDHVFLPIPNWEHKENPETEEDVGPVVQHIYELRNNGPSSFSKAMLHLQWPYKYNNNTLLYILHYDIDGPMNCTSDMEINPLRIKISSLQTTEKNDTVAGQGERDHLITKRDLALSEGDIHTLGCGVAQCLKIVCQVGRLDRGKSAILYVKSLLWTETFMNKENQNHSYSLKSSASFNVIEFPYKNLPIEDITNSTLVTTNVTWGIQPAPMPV
T1 sequence (P18564 22-707 limits assumed): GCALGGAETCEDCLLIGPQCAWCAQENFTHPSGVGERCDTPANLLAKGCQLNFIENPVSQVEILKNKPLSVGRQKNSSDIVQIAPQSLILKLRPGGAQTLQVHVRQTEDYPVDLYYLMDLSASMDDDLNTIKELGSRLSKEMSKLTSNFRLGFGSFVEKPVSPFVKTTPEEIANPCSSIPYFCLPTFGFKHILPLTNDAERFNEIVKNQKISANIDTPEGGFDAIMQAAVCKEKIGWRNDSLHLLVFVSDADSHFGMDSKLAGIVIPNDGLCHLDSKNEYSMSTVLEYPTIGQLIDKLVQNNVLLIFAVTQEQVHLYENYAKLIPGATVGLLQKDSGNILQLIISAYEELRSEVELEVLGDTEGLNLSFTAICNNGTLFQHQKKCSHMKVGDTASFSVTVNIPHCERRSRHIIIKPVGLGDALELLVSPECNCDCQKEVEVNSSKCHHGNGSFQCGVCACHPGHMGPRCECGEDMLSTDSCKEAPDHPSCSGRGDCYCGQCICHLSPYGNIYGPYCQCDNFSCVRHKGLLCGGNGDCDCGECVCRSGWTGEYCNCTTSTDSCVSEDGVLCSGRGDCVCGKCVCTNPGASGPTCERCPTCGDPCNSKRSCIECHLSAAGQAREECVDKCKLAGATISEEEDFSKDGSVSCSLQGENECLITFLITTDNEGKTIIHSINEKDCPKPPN

`COc1ccc([C@H](CC(=O)O)N2CCn3cc(CCC4CCc5cccnc5N4)cc3C2=O)cc1F` (mixture of isomers) [Example 2, (3S)-3-(3-Fluoro-4-methoxyphenyl)-3-(1-oxo-7-(2-(1,2,3,4-tetrahydro-1,8-naphthyridin-2-yl)ethyl)-3,4-dihydropyrrolo[1,2-a]pyrazin-2(1H)-yl)propanoic acid] and `COc1ccc([C@H](CC(=O)O)N2CCn3cc(CCC4CCc5cccnc5N4)cc3C2=O)cn1` (mixture of isomers) [Example 9] are within 1.5-fold of each other in IC50: 0.51 nM for the first, 0.6 nM for the second.

For `COc1ccc([C@H](CC(=O)O)N2CCn3cc(CCC4CCc5cccnc5N4)cc3C2=O)cn1` (single isomer, unassigned) [Example 11], the IC50 was 2.3 nM.
`COc1ccc([C@H](CC(=O)O)N2CCn3cc(CCC4CCc5cccnc5N4)cc3C2=O)cn1` (single isomer, unassigned) [Example 12] and `COc1ccc([C@H](CC(=O)O)N2CCn3cc(CCc4ccc5c(n4)NCCC5)cc3C2=O)cc1F` [Example 1, (S)-3-(3-Fluoro-4-methoxyphenyl)-3-(1-oxo-7-(2-(5,6,7,8-tetrahydro-1,8-naphthyridin-2-yl)ethyl)-3,4-dihydropyrrolo[1,2-a]pyrazin-2(1H)-yl)propanoic acid] are the same in IC50: 3.2 nM for the first, 3.2 nM for the second.

Compared with `COc1ccc([C@H](CC(=O)O)N2CCn3cc(CCc4ccc5c(n4)NCCC5)cc3C2=O)cn1` [Example 3, (S)-3-(6-Methoxypyridin-3-yl)-3-(1-oxo-7-(2-(5,6,7,8-tetrahydro-1,8-naphthyridin-2-yl)ethyl)-3,4-dihydropyrrolo[1,2-a]pyrazin-2(1H)-yl)propanoic acid], `COc1ccc([C@@H](CC(=O)O)N2CCn3cc(CCc4ccc5c(n4)NCCC5)cc3C2=O)cc1F` [Example 4] is 33-fold higher in IC50: 2.4 nM for the first, 80 nM for the second. The first is the more potent here.

Compared with `CC(C)(C)c1cc(Br)cc([C@H](CC(=O)O)N2CCn3cc(CCc4ccc5c(n4)NCCC5)cc3C2=O)c1` [Example 5], `O=C(O)C[C@@H](c1cc(Cl)cc(Cl)c1)N1CCn2cc(CCc3ccc4c(n3)NCCC4)cc2C1=O` [Example 6] is 1.7-fold higher in IC50: 0.59 nM for the first, 0.98 nM for the second. The first is the more potent here.

Compared with `COc1ccc([C@H](CC(=O)O)N2CCn3c(cc(CCc4ccc5c(n4)NCCC5)c3C)C2=O)cc1F` [Example 7], `Cc1cc(C)c(S(=O)(=O)N[C@@H](CN2CCn3cc(CCc4ccc5c(n4)NCCC5)cc3C2=O)C(=O)O)c(C)c1` [Example 8] is 2.8-fold lower in IC50: 69 nM for the first, 25 nM for the second. The second is the more potent here.

Going from `COc1ccc([C@H](CC(=O)O)N2CCn3cc(C(Cc4ccc5c(n4)NCCC5)Cc4ccc5c(n4)NCCC5)cc3C2=O)cc1F` [Example 10] to `Cc1ncc(C(CC(=O)O)N2CCn3cc(CCc4ccc5c(n4)NCCC5)cc3C2=O)cn1` (stereo not shown) [Example 13], the IC50 rises from 1.3 nM to 7.2 nM (5.5-fold).

Compared with `O=C(O)CC(c1cncnc1)N1CCn2cc(CCc3ccc4c(n3)NCCC4)cc2C1=O` (stereo not shown) [Example 15], `O=C(O)C[C@@H](c1cnc2ccccc2c1)N1CCn2cc(CCc3ccc4c(n3)NCCC4)cc2C1=O` [Example 16] is 13-fold lower in IC50: 23 nM for the first, 1.8 nM for the second. The second is the more potent here.

Going from `O=C(O)C[C@@H](c1ccc2c(c1)OCC2)N1CCn2cc(CCc3ccc4c(n3)NCCC4)cc2C1=O` [Example 17] to `O=C(O)CC(c1cnc2ccccc2n1)N1CCn2cc(CCc3ccc4c(n3)NCCC4)cc2C1=O` (stereo not shown) [Example 18], the IC50 rises from 2.6 nM to 140 nM (54-fold). The first is the more potent here.

Going from `O=C(O)C[C@@H](c1cnc2ccccc2c1)N1CCn2cc(CCCc3ccc4c(n3)NCCC4)cc2C1=O` [Example 19] to `COc1ncc([C@H](CC(=O)O)N2CCn3cc(CCCc4ccc5c(n4)NCCC5)cc3C2=O)cn1` [Example 20], the IC50 falls from 6.5 nM to 3.4 nM (1.9-fold).

First: Cc1ncc([C@H](CC(=O)O)N2CCn3cc(CCCc4ccc5c(n4)NCCC5)cc3C2=O)cn1 [Example 21]
Second: CC(C)COc1ccc([C@H](CC(=O)O)N2CCn3cc(CCc4ccc5c(n4)NCCC5)cc3C2=O)cn1 [Example 22, (S)-3-(6-Isobutoxypyridin-3-yl)-3-(1-oxo-7-(2-(5,6,7,8-tetrahydro-1,8-naphthyridin-2-yl)ethyl)-3,4-dihydropyrrolo[1,2-a]pyrazin-2(1H)-yl)propanoic acid]
The IC50 of the first is 3.5-fold higher: 5.6 nM for the first, 1.6 nM for the second. The second is the more potent here.

`CCOc1ccc([C@H](CC(=O)O)N2CCn3cc(CCc4ccc5c(n4)NCCC5)cc3C2=O)cn1` [Example 23, (S)-3-(6-Ethoxypyridin-3-yl)-3-(1-oxo-7-(2-(5,6,7,8-tetrahydro-1,8-naphthyridin-2-yl)ethyl)-3,4-dihydropyrrolo[1,2-a]pyrazin-2(1H)-yl)propanoic acid] and `O=C(O)C[C@@H](c1ccc(OCC2CC2)nc1)N1CCn2cc(CCc3ccc4c(n3)NCCC4)cc2C1=O` [Example 24, (S)-3-(6-(Cyclopropylmethoxy)pyridin-3-yl)-3-(1-oxo-7-(2-(5,6,7,8-tetrahydro-1,8-naphthyridin-2-yl)ethyl)-3,4-dihydropyrrolo[1,2-a]pyrazin-2(1H)-yl)propanoic acid] are the same in IC50: 1.6 nM for the first, 1.6 nM for the second.

First: O=C(N[C@@H](CN1CCn2cc(CCc3ccc4c(n3)NCCC4)cc2C1=O)C(=O)O)OCc1ccccc1 [Example 25, (S)-2-(((Benzyloxy)carbonyl)amino)-3-(1-oxo-7-(2-(5,6,7,8-tetrahydro-1,8-naphthyridin-2-yl)ethyl)-3,4-dihydropyrrolo[1,2-a]pyrazin-2(1H)-yl)propanoic acid]
Second: COc1ccc([C@H](CC(=O)O)N2CCn3c(cc(CCc4ccc5c(n4)NCCC5)c3I)C2=O)cc1F [Example 26, (S)-3-(3-Fluoro-4-methoxyphenyl)-3-(6-iodo-1-oxo-7-(2-(5,6,7,8-tetrahydro-1,8-naphthyridin-2-yl)ethyl)-3,4-dihydropyrrolo[1,2-a]pyrazin-2(1H)-yl)propanoic acid]
The IC50 of the first is 12-fold lower: 4.6 nM for the first, 53 nM for the second.

Going from `O=C(O)C[C@@H](c1ccc(O)c(F)c1)N1CCn2cc(CCc3ccc4c(n3)NCCC4)cc2C1=O` [Example 27, (S)-3-(3-Fluoro-4-hydroxyphenyl)-3-(1-oxo-7-(2-(5,6,7,8-tetrahydro-1,8-naphthyridin-2-yl)ethyl)-3,4-dihydropyrrolo[1,2-a]pyrazin-2(1H)-yl)propanoic acid] to `COc1ccc([C@H](CC(=O)O)N2CCn3cc(-c4ccc5c(n4)NCCC5)cc3C2=O)cc1F` [Example 28, (S)-3-(3-Fluoro-4-methoxyphenyl)-3-(1-oxo-7-(5,6,7,8-tetrahydro-1,8-naphthyridin-2-yl)-3,4-dihydropyrrolo[1,2-a]pyrazin-2(1H)-yl)propanoic acid], the IC50 rises from 4.8 nM to 340 nM (71-fold).

Going from `COc1ccc([C@H](CC(=O)O)N2CCn3cc(Cc4ccc5c(n4)NCCC5)cc3C2=O)cc1F` [Example 29, (S)-3-(3-Fluoro-4-methoxyphenyl)-3-(1-oxo-7-((5,6,7,8-tetrahydro-1,8-naphthyridin-2-yl)methyl)-3,4-dihydropyrrolo[1,2-a]pyrazin-2(1H)-yl)propanoic acid] to `COc1ccc([C@H](CC(=O)O)N2CCn3cc(CCCc4ccc5c(n4)NCCC5)cc3C2=O)cn1` [Example 30, (S)-3-(6-Methoxypyridin-3-yl)-3-(1-oxo-7-(3-(5,6,7,8-tetrahydro-1,8-naphthyridin-2-yl)propyl)-3,4-dihydropyrrolo[1,2-a]pyrazin-2(1H)-yl)propanoic acid], the IC50 rises from 0.73 nM to 1.1 nM (1.5-fold).

First: COc1ccc([C@H](CC(=O)O)N2CCn3cc(CCCCc4ccc5c(n4)NCCC5)cc3C2=O)cc1F [Example 31, (S)-3-(3-Fluoro-4-methoxyphenyl)-3-(1-oxo-7-(4-(5,6,7,8-tetrahydro-1,8-naphthyridin-2-yl)butyl)-3,4-dihydropyrrolo[1,2-a]pyrazin-2(1H)-yl)propanoic acid]
Second: (S)-3-(3-Fluoro-4-methoxyphenyl)-3-(1-oxo-7-(4-(5,6,7,8-tetrahydro-1,8-naphthyridin-2-yl)butyl)-3,4-dihydropyrrolo[1,2-a]pyrazin-2(1H)-yl)propanoic acid, TFA [Example 32]
The IC50 of the first is 34-fold lower: 12 nM for the first, 410 nM for the second.
